For the test, the system named is histomonad field strain. The experiment in a line: Cage experiments; histomonad activity in turkeys. It counts as in vivo. As to conditions: nitarsone 187.5 ppm in feed, day -4 to +14; for Average lesions in the appendix / Infection-related lesions in the liver: score 0=no lesions, 4=severe lesions. The method, then:
Histomonad-free male turkeys aged 10 days received nifurtimox or the comparative compound nitarson in the concentration given in “ppm” together with the feed from day −4 (=4 days prior to infection) to day 14. Infection is carried out on day 0, 10 animals are kept per group cage. 1 to 3 such groups are employed per dose.
The infection is carried out with a histomonad field strain which is passaged in the laboratory and stored in liquid nitrogen. On day 0, in each case 5 animals of a cage (with the exception of the noninfected control) are infected intracloacally with 250 000 histomonads in each case 1 ml of Dwyer's medium (=direct infection). After a few days, these infected animals excrete fresh histomonads and thus transmit the pathogen to the remaining 5 animals of the cage (=indirect infection).
To assess the activity, the criteria of McDougald and Hu 2001 (7) are taken into consideration: • the infection-caused mortality • the weight gain from the beginning to the end of the experiment • feed consumption • feed conversion • macroscopic assessment of the infection-related lesions in the appendices (caecum) and in the liver. In this assessment, score 0=no lesions and score 4=severe lesions.

[1] abbreviates: direct infection no, study of Table 1.
[2] abbreviates: direct infection no, study of Table 2.
Setting [3] is: direct infection yes, study of Table 1.
Where [4] appears, read: direct infection yes, study of Table 2.

Each structure is given as a SMILES string.

On to `O=[N+]([O-])c1ccc([As](=O)(O)O)cc1` [Nita., nitarsone], for which, under setting [1], the “Mean weight gain (g) between day 0 and the time of death” value (“Mean weight gain” below) turned out to be 782 g; the “Average lesions in the appendix” value turned out to be 0.00; the “Infection-related lesions in the liver” value came out at 0.00. Moreover, under setting [2], the “Mean weight gain” value is 725 g; the “Average lesions in the appendix” value was found to be 0.29; the “Infection-related lesions in the liver” value was determined as 0.21. Also, under setting [3], the “Mean weight gain” value was 541 g; the “Average lesions in the appendix” value came out at 2.26; the “Infection-related lesions in the liver” value is 0.13. Also, under setting [4], the “Mean weight gain” value stood at 426 g; the “Average lesions in the appendix” value was found to be 3.07; the “Infection-related lesions in the liver” value is 0.79. For the same compound, for the setting “study of Table 1”, the “Mean feed consumption between day 0 and day 14” value stood at 11.64 kg; the “Mean feed conversion between day 0 and day 14” value is reported as 1.77; the “Mortality caused by histomoniasis” value is 1. Moreover, under “study of Table 2”, the “Mean feed consumption between day 0 and day 14” value is listed as 9.82 kg; the “Mean feed conversion between day 0 and day 14” value is given as 1.79; the “Mortality caused by histomoniasis” value is recorded as 2.

(Values after US8440613B2, “Controlling diseases caused by trichomonadida” (Bayer Intellectual Property GmbH, priority 2008, dated 2013).)
